These results are taken from the CombiSolv-Exp solvation set (Vermeire and Green 2021).

The nature of this data set: solvent given as SMILES.

For `Cc1cc(C)cc(C)c1`, the “solvation free energy, 298 K” value (in O) was -0.77 kcal/mol; the “solvation free energy, 298 K” value (in OCCO) is -3.76 kcal/mol; the “solvation free energy, 298 K” value (in OCCOCCO) was -4.65 kcal/mol.

On to `C1COCCOCCOCCOCCOC1`, for which the “solvation free energy, 298 K” value by setting is: (in Cc1cccc(C)c1) -11.4 kcal/mol; (in O) -12.5 kcal/mol.

As for `COC(C)(C)C`, the “solvation free energy, 298 K” value was -3.29 kcal/mol (in CC(=O)N(C)C); -3.81 kcal/mol (in CC(C)(C)O); -3.58 kcal/mol (in CC(C)CC(C)(C)C); -3.89 kcal/mol (in CC(C)CCl); -3.88 kcal/mol (in CCC(C)Cl); -3.54 kcal/mol (in CCCCCCC). Also, the “solvation free energy, 298 K” value reads like this: (in CCCCCCCC) -3.51 kcal/mol; (in CCCCCCCCCC) -3.48 kcal/mol; (in CCCCCCCCCCCCCCCC) -3.22 kcal/mol; (in CCCCCCCCCCO) -3.73 kcal/mol; (in CCCCCCCCO) -3.52 kcal/mol; (in CCCCCCO) -3.55 kcal/mol. Also, the “solvation free energy, 298 K” value is -3.91 kcal/mol (in CCCCCl); -3.34 kcal/mol (in CCCCN(C=O)CCCC); -3.21 kcal/mol (in CCN1CCCC1=O); -3.4 kcal/mol (in CCN(CC)C(C)=O); -3.26 kcal/mol (in CCNC(C)=O); -3.21 kcal/mol (in CCNC=O). In addition, the “solvation free energy, 298 K” value (in CN1CCCCC1=O) is -3.22 kcal/mol; the “solvation free energy, 298 K” value (in CN(C)C=O) is -3.18 kcal/mol; the “solvation free energy, 298 K” value (in CNC(C)=O) was -3.12 kcal/mol; the “solvation free energy, 298 K” value (in CNC=O) was -3.08 kcal/mol; the “solvation free energy, 298 K” value (in CO) is -3.78 kcal/mol; the “solvation free energy, 298 K” value (in COC(=O)OC) is -3.52 kcal/mol. Moreover, the “solvation free energy, 298 K” value is, setting by setting: (in ClC(Cl)(Cl)Cl) -3.94 kcal/mol; (in ClC(Cl)Cl) -4.88 kcal/mol; (in O) -2.02 kcal/mol; (in [2H]O[2H]) -2.15 kcal/mol.

For `CCCCC(=O)OC`, the “solvation free energy, 298 K” value reads like this: (in CCCCCC) -4.93 kcal/mol; (in CCCCCCC) -4.91 kcal/mol; (in CCCCCCCC) -4.85 kcal/mol; (in CCCCCCCCCC) -4.75 kcal/mol; (in CO) -5.33 kcal/mol; (in O) -2.56 kcal/mol.

Turning to `O=C(c1ccccc1[N+](=O)[O-])N(O)c1ccccc1`, for the setting “in O”, the “solvation free energy, 298 K” value is -14.5 kcal/mol.

Turning to `CC(C)C`, the “solvation free energy, 298 K” value was -2 kcal/mol (in C1CCC2CCCCC2C1); -0.87 kcal/mol (in CC1COC(=O)O1); -1.86 kcal/mol (in CC(C)(C)O); -1.87 kcal/mol (in CC(C)=O); -1.8 kcal/mol (in CC(C)CCO); -1.8 kcal/mol (in CC(C)CO). For the same molecule, the “solvation free energy, 298 K” value reads like this: (in CC(C)O) -1.9 kcal/mol; (in CCC(C)(C)O) -1.92 kcal/mol; (in CCC(C)CO) -1.8 kcal/mol; (in CCC(C)O) -1.79 kcal/mol; (in CCC(O)CC) -1.83 kcal/mol; (in CCCC(C)O) -1.8 kcal/mol. Also, the “solvation free energy, 298 K” value reads like this: (in CCCCC) -2.38 kcal/mol; (in CCCCCC) -2.33 kcal/mol; (in CCCCCCC) -2.31 kcal/mol; (in CCCCCCCC) -2.3 kcal/mol; (in CCCCCCCCC) -2.2 kcal/mol; (in CCCCCCCCCC) -2.23 kcal/mol. In addition, the “solvation free energy, 298 K” value by setting is: (in CCCCCCCCCCCCCCCC) -1.91 kcal/mol; (in CCCCCCCO) -1.68 kcal/mol; (in CCCCCO) -1.79 kcal/mol; (in CCCCO) -1.91 kcal/mol; (in CCCO) -1.77 kcal/mol; (in CCO) -1.64 kcal/mol. The “solvation free energy, 298 K” value reads like this: (in CCOC(C)=O) -2.16 kcal/mol; (in CCOCC) -2.33 kcal/mol; (in CN1CCCC1=O) -1.2 kcal/mol; (in CN(C)C=O) -1.32 kcal/mol; (in CN(C)P(=O)(N(C)C)N(C)C) -1.53 kcal/mol; (in CO) -1.46 kcal/mol. Also, the “solvation free energy, 298 K” value by setting is: (in COCCOCCOCCOC) -1.18 kcal/mol; (in CS(C)=O) -0.53 kcal/mol; (in Cc1ccc(C)cc1) -2.06 kcal/mol; (in Cc1cccc(C)c1) -2.07 kcal/mol; (in Cc1ccccc1C) -2.04 kcal/mol; (in ClC(Cl)(Cl)Cl) -2.37 kcal/mol. Moreover, the “solvation free energy, 298 K” value is -2.25 kcal/mol (in Clc1ccccc1); -1.07 kcal/mol (in Nc1ccccc1); 2.32 kcal/mol (in O); -0.64 kcal/mol (in O=CN1CCOCC1); -1.55 kcal/mol (in OC1CCCCC1); -0.87 kcal/mol (in OCCCOCCCO). Besides, the “solvation free energy, 298 K” value (in OCCO) was -0.19 kcal/mol; the “solvation free energy, 298 K” value (in OCc1ccccc1) is -1.16 kcal/mol; the “solvation free energy, 298 K” value (in c1ccccc1) is -2.08 kcal/mol.

For the molecule `CC(C)I`, the “solvation free energy, 298 K” value runs as follows: (in CCO) -3.98 kcal/mol; (in O) -0.46 kcal/mol.

Consider `Nc1ccc(O)c2c1C(=O)c1ccccc1C2=O`, for which the “solvation free energy, 298 K” value (in O) is -9.53 kcal/mol.

`C=CCO`: the “solvation free energy, 298 K” value by setting is: (in CC(=O)N(C)C) -4.69 kcal/mol; (in CCCCN(C=O)CCCC) -5.42 kcal/mol; (in CNC(C)=O) -5.87 kcal/mol; (in O) -5.04 kcal/mol.

Turning to `CCCCCCCCCC(=O)O`, the “solvation free energy, 298 K” value (in O) was -5.28 kcal/mol.

As for `CCc1ccc(O)cc1`, the “solvation free energy, 298 K” value reads like this: (in C=CCCCCCCC=C) -7.11 kcal/mol; (in CCCCCC) -6.53 kcal/mol; (in CCCCCCC) -6.47 kcal/mol; (in CCCCCCCC) -6.44 kcal/mol; (in Cc1ccc(C)cc1) -7.85 kcal/mol; (in Cc1cccc(C)c1) -7.83 kcal/mol. Besides, the “solvation free energy, 298 K” value (in Cc1ccccc1C) is -7.87 kcal/mol and the “solvation free energy, 298 K” value (in O) was -6.14 kcal/mol.

In the case of `CC=Cc1ccc(O)c(OC)c1`, under “in O”, the “solvation free energy, 298 K” value was -6.33 kcal/mol.

For `Cc1ccccc1C(=O)N(O)c1ccccc1`, for the setting “in O”, the “solvation free energy, 298 K” value was -11.5 kcal/mol.

For the molecule `CCCCCCCOC(=O)c1ccccc1C(=O)OCCCCCCC`, the “solvation free energy, 298 K” value (in O) was -6.68 kcal/mol.

`O=Cc1ccco1`: the “solvation free energy, 298 K” value was -4.27 kcal/mol (in CCCCCCCC), -4.51 kcal/mol (in CCCCCCCCCC), -6.3 kcal/mol (in CCOC(C)=O) and -5.28 kcal/mol (in O).

With `C=CCCl`, the “solvation free energy, 298 K” value (in O) is -0.57 kcal/mol.

With `CCC(=O)c1c(C)[nH]n(-c2ccccc2)c1=O`, under “in O”, the “solvation free energy, 298 K” value was -9.74 kcal/mol.

As for `CCC(O)(CC)CC`, the “solvation free energy, 298 K” value reads like this: (in CCCCCCCC) -5.42 kcal/mol; (in CCCCCCCCCC) -5.34 kcal/mol.

Consider `CCCC(=O)c1c(C)[nH]n(-c2ccccc2)c1=O`, for which the “solvation free energy, 298 K” value (in O) was -9.51 kcal/mol.

`CC(=O)OCCC(C)C`: the “solvation free energy, 298 K” value (in CCCCCCCCCCCCCCCC) was -4.96 kcal/mol; the “solvation free energy, 298 K” value (in CCCCCCCCO) is -5.34 kcal/mol; the “solvation free energy, 298 K” value (in O) was -2.29 kcal/mol; the “solvation free energy, 298 K” value (in [2H]O[2H]) was -2.36 kcal/mol.

`CC(C)=CCCC(C)CCCC(C)CCCC(C)C` (centres undefined): the “solvation free energy, 298 K” value (in O) amounted to 3.72 kcal/mol.

Turning to `Nc1ccccc1[N+](=O)[O-]`, the “solvation free energy, 298 K” value (in CC(C)CC(C)(C)C) is -7.5 kcal/mol; the “solvation free energy, 298 K” value (in CCCCCC) is -7.51 kcal/mol; the “solvation free energy, 298 K” value (in O) is -7.43 kcal/mol.

Regarding `C=CCCCCCCCCCC`, the “solvation free energy, 298 K” value is -6.25 kcal/mol (in CN(C)C=O) and 2.58 kcal/mol (in O).

As to `CCCCCCCCCCOC(=O)c1ccccc1C(=O)OCC`, the “solvation free energy, 298 K” value (in O) was -6.78 kcal/mol.

For `Clc1ccc(Cl)c(-c2ccccc2)c1`, the “solvation free energy, 298 K” value (in O) was -2.46 kcal/mol.

Consider `CCCCOC(=O)c1ccc(O)cc1`, for which the “solvation free energy, 298 K” value (in O) was -8.72 kcal/mol.

On to `C#CC(C)(C)O`, for which the “solvation free energy, 298 K” value (in O) is -5.18 kcal/mol.

Take `CCCC(C)C(C)O` (centres undefined): the “solvation free energy, 298 K” value was -5.31 kcal/mol (in CCCCCCCC) and -5.27 kcal/mol (in CCCCCCCCCC).

For the molecule `Clc1ccc2c(c1)Oc1ccc(Cl)cc1O2`, where the note is “in O”, the “solvation free energy, 298 K” value is -3.67 kcal/mol.

`C=C(c1ccccc1)c1ccccc1`: the “solvation free energy, 298 K” value (in O) was -2.78 kcal/mol.

With `CNC(=O)Oc1cccc2ccccc12`, the “solvation free energy, 298 K” value (in CCCCCCCCC=CCCCCCCCC(=O)OCC(COC(=O)CCCCCCCC=CCCCCCCCC)OC(=O)CCCCCCCC=CCCCCCCCC) is -12.6 kcal/mol.

In the case of `COC(=O)c1ccc(Cl)c([N+](=O)[O-])c1`, the “solvation free energy, 298 K” value was -11.6 kcal/mol (in CN(C)C=O) and -6.89 kcal/mol (in O).
